Assay [1] in a line: Liposome co-sedimentation assay. Conditions: protein alone (2 μM) with PI3P-containing LUVs (1 mM), 25 mM Hepes pH 7.5, 200 mM NaCl, 1 h room temperature; Coomassie densitometry; mean ± SD. It counts as binding. The procedure: All lipids were purchased from Avanti Polar Lipids, INC. (Alabaster, AL) and dissolved in a final 20:9 molar ratio of chloroform:methanol. The lipid composition of liposomes consisted of DOPC, DOPE, DOPS, 18:1 PI(3)P, and 1,2-dioleoyl-sn-glycero-3-phosphoethanolamine-N-(lissamine rhodamine B sulfonyl) (18:1 Liss Rhod PE) in a final molar ratio of 44.7:29.3:20.0:5.0:1.0, respectively. Vesicles were prepared using the same thin-film hydration method described for GUVs, followed by extrusion to get a more homogeneous vesicle population. A mini extruder (Avanti Polar Lipids) and Whatman Nucleopore track-etched membranes with a pore size of 0.4 μm (Cytiva) were used to obtain Large Unilamellar Vesicles (LUVs). The extrusion buffer (25 mM Hepes pH 7.5, 1 mM TCEP) was supplemented with 250 mM raffinose pentahydrate to produce vesicles filled with raffinose. These vesicles can be separated from the aqueous solution in co-sedimentation assays by centrifugation (Julkowska et al, [2013]). […]
For co-sedimentation experiments, the working buffer (25 mM Hepes pH 7.5, 200 mM NaCl, 1 mM TCEP), proteins (Retriever, HisSumo-SNX17, and His10-L2FBR or His10-LRP1ICD in a 2:2:4 μM ratio), and liposomes (1 mM final concentration) were sequentially mixed into 0.5 ml tubes. […] Quantification of signal intensity was determined using Empiria Studio Software (LI-COR). […]

A further assay concerns the target T1, VPS26C (Homo sapiens, UniProt O14972).
T1 construct: His-Sumo3 (N, cleaved yes); made in house; host or cells: Escherichia coli BL21(DE3)
Kind of assay: Isothermal titration calorimetry VPS26C with SNX17FERM-CT. The class given is binding. Conditions: ITC, 30 μM VPS26C and 300 μM SNX17FERM-CT, 25 mM Hepes pH 7.5, 150 mM NaCl, 25 °C; also pull-down. As to the method: Isothermal titration calorimetry (ITC) experiments were carried out on a Nano ITC calorimeter (TA Instruments). VPS26C and SNX17FERM-CT were dialyzed overnight at 4 °C against 25 mM Hepes pH 7.5, 150 mM NaCl, and 0.5 mM TCEP, and degassed for 30 min at 25 °C before titration. The titration experiments were conducted at 25 °C with one initial 1.5 μl injection followed by 19 injections of 2.5 μl with a spacing of 300 s between injections. To determine the heat of dilution similar injections of SNX17FERM-CT in buffer were carried out. The resulting titration data were analyzed using NanoAnalyze software (TA Instruments).

These results are taken from PMC11772769, “Selective cargo and membrane recognition by SNX17 regulates its interaction with Retriever” (EMBO Reports, 2024).

With “SNX17: recombinant sorting nexin 17; His-Sumo3-SNX17 in co-sedimentation, SNX17FERM-CT in ITC”, in assay [1], the “percentage of total protein bound to the pellet” value was 64 ± 17%. Further, in the assay with VPS26C, the “interaction with VPS26C” value is recorded as “no direct interaction”.
